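Results reflect a 48-hour exposure of cells in 96-well plates to compound at five concentrations. The concentration for 50% growth inhibition is given as GI50.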 Calls of active or inactive are those of the source. No stated cut-off is given here; in the data, active = GI50 up to about 1.1 µM and inactive = higher.
Columns and labels:
Assay in all cases: inhibition of tumour cell growth, NCI panel, 48 h
CCRF-CEM = tested on: CCRF-CEM
HCT-116 = tested on: HCT-116
HL-60 = tested on: HL-60
K562 = tested on: K562
LOX IMVI = tested on: LOX IMVI
MOLT-4 = tested on: MOLT-4
Malme-3M = tested on: Malme-3M
NCI-H23 = tested on: NCI-H23
OVCAR-8 = tested on: OVCAR-8
SF-295 = tested on: SF-295
SF-539 = tested on: SF-539
SN12C = tested on: SN12C
SNB-19 = tested on: SNB-19
U-251 = tested on: U-251
UACC-257 = tested on: UACC-257
UO-31 = tested on: UO-31
RXF 393 = tested on: RXF 393

SMILES | GI50 (CCRF-CEM) | GI50 (HCT-116) | GI50 (HL-60) | GI50 (K562) | GI50 (LOX IMVI) | GI50 (MOLT-4) | GI50 (Malme-3M) | GI50 (NCI-H23) | GI50 (OVCAR-8) | GI50 (SF-295) | GI50 (SF-539) | GI50 (SN12C) | GI50 (SNB-19) | GI50 (U-251) | GI50 (UACC-257) | GI50 (UO-31) | GI50 (RXF 393)
CCOC(=O)/C(=C/c1ccc(OC)cc1)N(CC)CC | > 100 µM (inactive) | > 100 µM (inactive) | 52.1 µM (inactive) | > 100 µM (inactive) | > 100 µM (inactive) | > 100 µM (inactive) | > 100 µM (inactive) | > 100 µM (inactive) | > 100 µM (inactive) | > 100 µM (inactive) | > 100 µM (inactive) | > 100 µM (inactive) | > 100 µM (inactive) | > 100 µM (inactive) | > 100 µM (inactive) | > 100 µM (inactive) | 
O=C1SC(c2ccccc2)(c2ccccc2)c2ccccc21 | 94.6 µM (inactive) | > 100 µM (inactive) | 41.3 µM (inactive) | 74.5 µM (inactive) | > 100 µM (inactive) | 82.8 µM (inactive) | > 100 µM (inactive) | > 100 µM (inactive) | > 100 µM (inactive) | > 100 µM (inactive) | > 100 µM (inactive) | > 100 µM (inactive) | > 100 µM (inactive) | > 100 µM (inactive) | > 100 µM (inactive) | 56.2 µM (inactive) | 44.1 µM (inactive)
C=CC[P@]1(=O)O[C@H](c2ccccc2)[C@H](C)N1C | > 100 µM (inactive) |  | > 100 µM (inactive) | > 100 µM (inactive) | > 100 µM (inactive) | > 100 µM (inactive) | > 100 µM (inactive) | > 100 µM (inactive) | > 100 µM (inactive) | > 100 µM (inactive) | > 100 µM (inactive) | > 100 µM (inactive) | > 100 µM (inactive) | > 100 µM (inactive) |  | > 100 µM (inactive) | > 100 µM (inactive)
Cc1ccc(S(=O)(=O)c2ccccn2)cc1 | > 100 µM (inactive) | > 100 µM (inactive) | > 100 µM (inactive) | > 100 µM (inactive) | > 100 µM (inactive) | > 100 µM (inactive) | > 100 µM (inactive) | > 100 µM (inactive) | > 100 µM (inactive) | > 100 µM (inactive) | > 100 µM (inactive) | > 100 µM (inactive) | > 100 µM (inactive) | > 100 µM (inactive) | > 100 µM (inactive) | > 100 µM (inactive) | > 100 µM (inactive)
COc1cc2c(c(OC)c1OC)-c1ccc(SC)c(=O)cc1[C@@H](NC(=O)c1ccc(OC(C)=O)cc1)CC2 | 0.0329 µM (active) | 0.0229 µM (active) | 0.0338 µM (active) | 0.0301 µM (active) | 0.0137 µM (active) | 0.0409 µM (active) | 0.0238 µM (active) | 0.0212 µM (active) | 0.0313 µM (active) | 0.0217 µM (active) | 0.0169 µM (active) | 0.0324 µM (active) |  | 0.0227 µM (active) | 0.0349 µM (active) | 0.433 µM (active) | 0.018 µM (active)
N[C@H](C(=O)O)[C@H](Cl)CC(=O)O | > 100 µM (inactive) | > 100 µM (inactive) | > 100 µM (inactive) | > 100 µM (inactive) | > 100 µM (inactive) | > 100 µM (inactive) | > 100 µM (inactive) | > 100 µM (inactive) | > 100 µM (inactive) | > 100 µM (inactive) | > 100 µM (inactive) | > 100 µM (inactive) | > 100 µM (inactive) | > 100 µM (inactive) | > 100 µM (inactive) | > 100 µM (inactive) | > 100 µM (inactive)
c1ccc2c(c1)cc(C1NCCc3nc[nH]c31)c1ccccc12 (stereo unspecified) | 27.2 µM (inactive) | 21.1 µM (inactive) | 41.6 µM (inactive) | 15.2 µM (inactive) | 19.8 µM (inactive) | 21 µM (inactive) | 30.6 µM (inactive) | > 100 µM (inactive) | > 68.9 µM (inactive) | 56.2 µM (inactive) | > 45.2 µM (inactive) | 56 µM (inactive) | > 100 µM (inactive) | 39.1 µM (inactive) | 31 µM (inactive) | 33.7 µM (inactive) | 31.7 µM (inactive)
O=C(O)C(CS)NCc1c2ccccc2[n+]([O-])c2ccccc12 (stereo unspecified) | 21.5 µM (inactive) | 5.87 µM (inactive) | 23.8 µM (inactive) | 20.5 µM (inactive) | 28.8 µM (inactive) | 13.8 µM (inactive) | 63.1 µM (inactive) | 31 µM (inactive) | 30.4 µM (inactive) | 58.1 µM (inactive) |  | 34.4 µM (inactive) | 38 µM (inactive) | 45.4 µM (inactive) | > 100 µM (inactive) | 17.5 µM (inactive) | 
COC(=O)N/N=C(\C)C(CN(C)C)C(c1ccccc1)c1c(O)c2ccccc2oc1=O (stereo unspecified) | > 100 µM (inactive) | > 100 µM (inactive) | > 100 µM (inactive) | > 100 µM (inactive) | > 100 µM (inactive) | > 100 µM (inactive) | > 100 µM (inactive) | > 100 µM (inactive) | > 100 µM (inactive) | > 100 µM (inactive) | > 100 µM (inactive) | > 100 µM (inactive) | > 100 µM (inactive) | > 100 µM (inactive) | > 100 µM (inactive) | > 100 µM (inactive) | > 100 µM (inactive)
C#CCOCn1cnc2ncnc(N)c21 | > 100 µM (inactive) | > 100 µM (inactive) |  | > 100 µM (inactive) | > 100 µM (inactive) | > 100 µM (inactive) | > 100 µM (inactive) | > 100 µM (inactive) | > 100 µM (inactive) | > 100 µM (inactive) | > 100 µM (inactive) | > 100 µM (inactive) | > 100 µM (inactive) | > 100 µM (inactive) | > 100 µM (inactive) | > 100 µM (inactive) | > 100 µM (inactive)
O=C(CCc1n[nH]c(=S)o1)Nc1ccc(Cl)cc1Cl | 43.6 µM (inactive) | 33.9 µM (inactive) | 76.4 µM (inactive) | 38.7 µM (inactive) |  | > 100 µM (inactive) | > 100 µM (inactive) | > 100 µM (inactive) | > 100 µM (inactive) | > 100 µM (inactive) | > 100 µM (inactive) | > 100 µM (inactive) | > 100 µM (inactive) | > 100 µM (inactive) | > 100 µM (inactive) | > 100 µM (inactive) | 
[N-]=[N+]=NC1(c2ccccc2)C(=O)C(Cl)=C(c2ccccc2)N(c2ccccc2)C1=O (stereo unspecified) | 59.7 µM (inactive) | > 100 µM (inactive) | 43.1 µM (inactive) | 46.8 µM (inactive) | > 100 µM (inactive) | 58.5 µM (inactive) | > 100 µM (inactive) | 64.9 µM (inactive) | > 100 µM (inactive) | > 100 µM (inactive) | > 100 µM (inactive) | > 100 µM (inactive) | > 100 µM (inactive) | > 100 µM (inactive) | > 100 µM (inactive) | 97.3 µM (inactive) | 
CC(C)(C)NNC(=O)CCn1[nH]c(=O)c(Cl)c(Cl)c1=O | > 100 µM (inactive) |  | > 100 µM (inactive) | > 100 µM (inactive) | > 100 µM (inactive) | > 100 µM (inactive) | > 100 µM (inactive) | > 100 µM (inactive) | > 100 µM (inactive) | > 100 µM (inactive) | > 100 µM (inactive) | > 100 µM (inactive) | > 100 µM (inactive) | > 100 µM (inactive) | > 100 µM (inactive) | > 100 µM (inactive) | > 100 µM (inactive)
Cc1nc(=O)[nH]c2[nH][nH]c(=O)c12 | > 100 µM (inactive) | > 100 µM (inactive) | > 100 µM (inactive) | > 100 µM (inactive) | > 100 µM (inactive) | > 100 µM (inactive) | > 100 µM (inactive) | > 100 µM (inactive) | > 100 µM (inactive) | > 100 µM (inactive) | > 100 µM (inactive) | > 100 µM (inactive) |  | > 100 µM (inactive) |  |  | > 100 µM (inactive)
O=C1NC2(CCCC2)C(=O)C12CCCC2 | > 100 µM (inactive) | > 100 µM (inactive) | > 100 µM (inactive) | > 100 µM (inactive) | > 100 µM (inactive) | > 100 µM (inactive) | > 100 µM (inactive) | > 100 µM (inactive) | > 100 µM (inactive) | > 100 µM (inactive) | > 100 µM (inactive) | > 100 µM (inactive) | > 100 µM (inactive) | > 100 µM (inactive) | > 100 µM (inactive) | > 100 µM (inactive) | > 100 µM (inactive)
N#Cc1ccccc1Sc1ccccc1N | 73.1 µM (inactive) |  | 72.6 µM (inactive) | 70.6 µM (inactive) | > 100 µM (inactive) | 43.8 µM (inactive) | 42.8 µM (inactive) | 67.8 µM (inactive) | > 100 µM (inactive) | > 100 µM (inactive) | > 100 µM (inactive) | 78.3 µM (inactive) | > 100 µM (inactive) | > 100 µM (inactive) | > 100 µM (inactive) | 45.6 µM (inactive) | 80.2 µM (inactive)
COc1cc2c(cc1OC)-c1c3cc(O)ccc3nn[n+]1CC2 | > 100 µM (inactive) | > 100 µM (inactive) | > 100 µM (inactive) | > 100 µM (inactive) | > 100 µM (inactive) | > 100 µM (inactive) |  | > 100 µM (inactive) | > 100 µM (inactive) | > 100 µM (inactive) | > 100 µM (inactive) | > 100 µM (inactive) | > 100 µM (inactive) | > 100 µM (inactive) |  |  | > 100 µM (inactive)

From ChEMBL document CHEMBL1201862, “PubChem BioAssay data set” (2004)
